BindingDB's records for doi:10.1124/jpet.104.075069 (Targacept, 2005)

Assays:
[1] = target: Neuronal acetylcholine receptor subunit alpha-7 (Rattus norvegicus, UniProt Q05941)
[2] = target: Neuronal acetylcholine receptor subunit alpha-4 (Rattus norvegicus, UniProt P09483)
Sequence of Neuronal acetylcholine receptor subunit alpha-4 (P09483 whole entry): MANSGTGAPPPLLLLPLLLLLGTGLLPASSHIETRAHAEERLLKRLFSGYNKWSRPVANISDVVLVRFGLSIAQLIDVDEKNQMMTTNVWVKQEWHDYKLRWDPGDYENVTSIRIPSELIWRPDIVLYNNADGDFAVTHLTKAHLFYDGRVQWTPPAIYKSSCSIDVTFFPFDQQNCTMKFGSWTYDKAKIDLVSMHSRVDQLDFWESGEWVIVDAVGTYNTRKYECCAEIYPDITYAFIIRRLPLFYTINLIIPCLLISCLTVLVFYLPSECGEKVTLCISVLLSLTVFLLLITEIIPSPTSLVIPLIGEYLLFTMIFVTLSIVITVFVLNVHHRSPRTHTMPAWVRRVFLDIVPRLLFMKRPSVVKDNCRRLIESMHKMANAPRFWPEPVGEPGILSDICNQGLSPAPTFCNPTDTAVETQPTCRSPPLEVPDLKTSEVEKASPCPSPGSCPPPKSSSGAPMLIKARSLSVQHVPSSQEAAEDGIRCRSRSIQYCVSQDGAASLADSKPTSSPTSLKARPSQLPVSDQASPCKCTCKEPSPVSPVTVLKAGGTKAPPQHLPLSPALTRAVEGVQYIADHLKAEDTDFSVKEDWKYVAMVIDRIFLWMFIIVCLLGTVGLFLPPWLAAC

Sequence of Neuronal acetylcholine receptor subunit alpha-7 (Q05941 whole entry): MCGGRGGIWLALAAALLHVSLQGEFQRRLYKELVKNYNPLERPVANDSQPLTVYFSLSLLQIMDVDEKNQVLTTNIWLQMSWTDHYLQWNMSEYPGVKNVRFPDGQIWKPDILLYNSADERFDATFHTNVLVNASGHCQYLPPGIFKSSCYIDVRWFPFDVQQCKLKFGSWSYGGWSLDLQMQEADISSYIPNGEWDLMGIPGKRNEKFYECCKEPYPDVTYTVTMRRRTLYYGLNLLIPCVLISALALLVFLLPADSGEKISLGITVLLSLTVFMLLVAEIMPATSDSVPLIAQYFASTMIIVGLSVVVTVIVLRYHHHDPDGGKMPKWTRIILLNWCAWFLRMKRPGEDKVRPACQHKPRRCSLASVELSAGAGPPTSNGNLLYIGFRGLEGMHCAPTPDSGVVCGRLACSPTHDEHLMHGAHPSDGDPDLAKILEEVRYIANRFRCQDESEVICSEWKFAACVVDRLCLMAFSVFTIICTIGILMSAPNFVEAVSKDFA

Row | SMILES | Ki [1] | Ki [2]
1 | C[N+](C)(C)CCOC(N)=O [(2-Hydroxyethyl)trimethyl ammonium chloride carbamate] | 9920 nM | 66.4 nM
2 | c1cncc(OCC2CCN2)c1 (stereo not drawn) [A-85380] | 54.9 nM | 
3 | Cc1cc(C2CCCN2C)on1 (stereo not drawn) [ABT-418] | 1970 nM | 4.69 nM
4 | O=c1cccc2n1CC1CNCC2C1 (stereo not drawn) [CAS_485-35-8] | 1140 nM | 0.2 nM
5 | CNC(=O)OCC[N+](C)(C)C [CAS_14721-69-8] | 4350 nM | 2.51 nM
6 | CCN1CC2(COC(=O)c3ccccc3-n3c(O)cc(C)c3O)CCC(OC)C34C5CC6C(OC)CC(O)(C5C6OC)C(O)(C(OC)C23)C14 (stereo not drawn) [CAS_21019-30-7] |  | 585 nM
7 | COc1ccc(C=C2CCCN=C2c2cccnc2)c(OC)c1 [CAS_156223-05-1] | 596 nM | 278 nM
8 | COC1CC=C2CCN3CCC4=C(CC(=O)OC4)C23C1 (stereo not drawn) [NSC_31762] | 7700 nM | 24.6 nM
9 | C#Cc1cncc(C2CCCN2C)c1 (stereo not drawn) [NSC_6442277] | 14400 nM | 0.5 nM
10 | c1cncc(C2CC3CCN2CC3)c1 (stereo not drawn) [TC-2429] | 12.4 nM | 1 nM
